# Tests used:
# [1] = test system: cucumber downy mildew; assay: protectant activity in vivo against cucumber downy mildew
# [2] = test system: corn rust; assay: protectant activity in vivo against corn rust
# [3] = test system: Green peach aphids (Myzus Persicae Sulzer); assay: bioactivity test against green peach aphid, airbrush foliar spray; type: in vivo; settings: for control (test results against green peach aphid): death rate after 48 hrs; for Insecticidal activity against peach aphid (%): contrastive test
# Outline: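 Aphids (15-30 per cabbage leaf disc) on moist filter paper were airbrush-sprayed at 10 psi, 0.5 mL, with compound from acetone:methanol (1:1) diluted in water with 0.1% tween 80. Held at 25±1 C, 60±5% RH; survivors counted after 48 hrs to give death rates.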
# [4] = test system: Diamond back moth; assay: insecticidal activity against diamond back moth, airbrush spray; type: in vivo; settings: for control (test results against diamond back moth): 600 ppm, mortality after 72 hrs
# Description: (§1) Compounds were dissolved in mixed solvent (acetone:methanol=1:1), and diluted to required concentration with water containing 0.1% of tween 80.
# (§2) Diamond back moth, armyworm, peach aphid and carmine spider mite were used as targets and the method of spraying by airbrush was used for determination of insecticidal biassays.
# (§3) The method of spraying by airbrush: The cabbage leaves were made into plates of 2 cm diameter by use of punch. A test solution (0.5 ml) was sprayed by airbrush at the pressure of 0.7 kg/cm^2 to both sides of every plate. 10 Second instar larvae were put into the petri-dishes after the leaf disc air-dried and 3 replicates were set for each treatment. Then the insects were maintained in observation room (25° C., 60˜70% R.H.). Scores were conducted and mortalities were calculated after 72 hrs.
# [5] = test system: wheat powdery mildew; assay: protectant activity in vivo against wheat powdery mildew; settings: for protectant activity against wheat powdery mildew in vivo: 400 ppm
# [6] = test system: carmine spider mite; assay: bioactivity test against carmine spider mite, airbrush spray; type: in vivo; settings: for control against carmine spider mite: mortality after 72 hrs; for Insecticidal activity against carmine spider mite (% ): contrastive test
# Description: as §1, §2
# The method: Broadbean shoots with two true leaves in pot were taken, the healthy adults of carmine spider mite were inoculated to the leaves. The adults were counted and then sprayed with airbrush at the pressure of 0.7 kg/cm^2 and at dose of 0.5 ml. 3 replicates were set for each treatment. And then they were maintained in standard observation room. Scores were conducted and mortalities were calculated after 72 hrs.
# [7] = test system: armyworm; assay: bioactivity test against armyworm, airbrush spray; type: in vivo; settings: for control (test results against armyworm): 600 ppm, mortality after 72 h
# Description: as §1, §2
# as §3, with “corn” for “cabbage”, “(25 °C,” for “(25° C.,”, “h.” for “hrs.”
SMILES,"control effect against cucumber downy mildew (%) ([1]; 25 mg/L, protectant activity)","control effect against cucumber downy mildew (%) ([1]; 50 mg/L, protectant activity)","control effect against cucumber downy mildew (%) ([1]; 100 mg/L, protectant activity)","control effect against cucumber downy mildew (%) ([1]; 400 mg/L, protectant activity)",protectant activity against cucumber downy mildew in vivo ([1]; 100 ppm) [%],protectant activity against cucumber downy mildew in vivo ([1]; 400 ppm) [%],protectant activity against corn rust in vivo ([2]; 100 ppm) [%],protectant activity against corn rust in vivo ([2]; 400 ppm) [%],control (test results against green peach aphid) ([3]; 100 ppm) [%],control (test results against green peach aphid) ([3]; 600 ppm) [%],control (test results against diamond back moth) [4] [%],protectant activity against wheat powdery mildew in vivo [5] [%],control against carmine spider mite ([6]; 600 ppm) [%],control (test results against armyworm) [7] [%],other results
Cc1cc(Cl)ccc1Oc1ccc(CCNc2ncnc(C)c2Cl)cn1 [III-110],100,100,100,100,100,100,100,100,100,100,100,100,100,,protectant activity against cucumber downy mildew in vivo ([1]; 25 ppm): 100%; protectant activity against cucumber downy mildew in vivo ([1]; 50 ppm): 100%
Cc1ncnc(NCCc2ccc(Oc3cccc(Cl)c3)nc2)c1Cl [III-6],,,,,,,100,100,,100,100,100,,100,
CCc1ncnc(NCCc2ccc(Oc3ccc(S(N)(=O)=O)cc3)cc2)c1Cl [II-556],,,,,,,,,,,100,,,,
CCc1ncnc(NCCc2ccc(Oc3ccc(Cl)cc3Cl)cc2)c1Cl [II-299],,,,,100,100,100,100,100,100,,100,100,100,Insecticidal activity against carmine spider mite (% ) ([6]; 10 mg/L): 72%; Insecticidal activity against carmine spider mite (% ) ([6]; 100 mg/L): 100%; Insecticidal activity against carmine spider mite (% ) ([6]; 600 mg/L): 100%; control against carmine spider mite ([6]; 100 ppm): 100%
"COc1cc(NCCc2ccc(Oc3ncc(C(F)(F)F)cc3Cl)cc2)ncn1 [CK71, reference compound]",,,,,,,,,,,,,,,"pest or weed control at 400 µg/mL ([1]; Cucumis sativus, 168 h, read-out: control effect against cucumber downy mildew (%), 400 mg/L, protectant activity): 80%; pest or weed control at 400 µg/mL ([2]; Zea mays, 168 h, read-out: control effect against corn rust (%), 400 mg/L, protectant activity): 0%; pest or weed control at 600 µg/mL ([4]; 72 h, 600 mg/L): 0%; pest or weed control at 400 µg/mL ([5]; Triticum aestivum, 168 h, read-out: control effect against wheat powdery mildew (%), 400 mg/L, protectant activity): 100%; pest or weed control at 600 µg/mL ([7]; 72 h, 600 mg/L, read-out: Insecticidal activity against armyworm (%)): 86%"
"CCc1ncnc(NC(C)c2ccc(Oc3ccc(C(C)(C)C)cc3)nc2)c1Cl (stereo not drawn) [CK10, reference compound]",20,40,82,100,,,,,,,,,,,"control effect against corn rust (%) ([2]; 400 mg/L, protectant activity): 50%; Insecticidal activity against peach aphid (%) ([3]; 10 mg/L): 23%; Insecticidal activity against peach aphid (%) ([3]; 100 mg/L): 91%; Insecticidal activity against peach aphid (%) ([3]; 600 mg/L): 100%; Insecticidal activity against diamond back moth (%) ([4]; 600 mg/L): 33%; control effect against wheat powdery mildew (%) ([5]; 400 mg/L, protectant activity): 50%; Insecticidal activity against armyworm (%) ([7]; 600 mg/L): 0%"

# From US9770026B2, “Substituted pyrimidine compound and uses thereof” (Shenyang Sinochem Agrochemicals R&D Co., Ltd., priority 2012, dated 2017)
